Experimental data published in US20210338658A1, “MACROLIDE COMPOUNDS AND THEIR USE IN LIVER STAGE MALARIA AND RELATED DISEASE” (The Johns Hopkins University, priority 2014, published 2021).
Entries after “also recorded” stand apart in the source; their conditions may differ.

Assays:
P. berghei sporozoites [1] = assay: In vitro malaria liver stage assay (infected Hepa1-6 cells counted by anti-HSP70 immunofluorescence); assay type: cell-based, Plasmodium berghei; settings: for reduction of parasite multiplication / growth in vitro: 10 μM
Description: 3A. […] Error is standard error of the mean of duplicate wells performed in biologic replicate. 3B. […] 50,000 Hepa1-6 cells were seeded in each well 24 hours prior to infection with 50,000 P. berghei sporozoites. The 2E6 anti-HSP70 antibody was used for immunofluorescent numeration of infected cells.
Drugs were purchased from either Sigma or Ambinter. In each chamber of 8-well LabTek tissue culture slides, 50,000 mouse hepatoma cells, Hepa1-6, were seeded one day before infection. Cells were normally cultured in DMEM supplemented with 10% FBS, 1× L-glutamine and 1× Pen-Strep at 37° C. and 5% CO2. Once incubated with P. berghei sporozoites, the culture medium supplement was changed to 2.5% FBS, 1× L-glutamine and 2× Pen-Strep. Before treatment with drugs, the cells were washed four times with DMEM containing 10× Pen-Strep and 5 ug/mL fungicide. After 24 hours, fresh culture medium containing drugs was added to each chamber. Approximately 42 hours post-infection, the growth medium was removed and 100% cold methanol was added for 15 minutes to fix the cells. After washing with sterile PBS, cells were incubated in PBS with 5% FBS for blocking. Then 2E6 anti-HSP70 antibody was diluted to 10 μg/mL in PBS with 5% FBS and added in a 200 μL volume to cells. One hour later, cells were washed with PBS and incubated with 10 μg/mL Alexafour 594 anti-mouse secondary antibody. In order to visualize hepatocytes, nuclear counterstain DAPI was incubated with cells for 5 minutes and then washed off. The plastic chambers and silicone gasket were removed and slide was fully dried before mounted and sealed with cover slides. When preparation was complete, slide was taken to the fluorescence microscope for examination. Representative areas were randomly selected from each chamber and the numbers of infected cells were counted for a similar number of microscopic fields. The level of inhibition was determined by comparing the average of each chamber containing treated cells with that of the controls.
Five compounds were procured while cethromycin was synthesized. Cethromycin was directly synthesized from erythromycin by substituting the cladinose sugar at C3 with a keto-group, attaching a cyclic carbamate group at C11-C12, and tethering the quinoline moiety to the C6 alcohol. We used the in vitro P. berghei ANKA model on mouse hepatoma cells, Hepa1-6. […] Quinoline, erythromycin and their combination were also tested to investigate the role the quinoline plays in the antimalarial activity of cethromycin. […] Due to limited synthesized amounts of cethromycin, only one dose was given to mice while other drugs and compounds were administered twice.

P. berghei sporozoites [2] = assay: In vivo liver stage assay (mouse liver parasite load by real-time PCR); settings: for inhibitory effect on parasite proliferation in mice (in words): two doses 24 hours apart; for side effects in the mice: after two doses; for effect on parasite growth in mice (in words): dose not given
Description: Approximately 10,000 sporozoites were inoculated by tail vein injection and mice were sacrificed 40 hours later, livers were harvested, placed in RNAzol and parasite levels determined by realtime PCR from cDNA from reverse transcription. Relative fluorescent units were compared to control to determine percent inhibition. Cethromycin (CET) was administered only once while the other drugs were given twice 24 hours apart from each dose. […] Error is standard error of mean of three mice with real time PCR performed in duplicate for transcript levels in each mouse.
Mice were kept in Johns Hopkins Bloomberg School of Public Health mouse facility according to the ACUC animal protocol number MO09H401. Six week old C57BL/6 mice weighing about 20-22 g were divided into groups of three. 12,000 P. berghei sporozoites in a 200 μL volume were injected into mice through tail veins. Two hours after injection, different dilutions of drugs in 100-200 μL volumes were delivered to mice by oral gavage using a plastic feeding tube. A second dose of drugs was given 24 hours after the first one to the mice that were on a daily dosing regimen. Approximately 40 hours post-infection, mice infected with P. berghei sporozoites were anesthetized by inhaling Metofane® and sacrificed for harvesting whole livers. Each mouse liver was immediately put into 10 mL of Trizol® Reagent and fully homogenized. After RNA isolation, the RNA was diluted to 100 ng/mL for reverse-transcription reactions. For a 30 μL reaction, the components were set up as: 3.5 μL of nuclease-free water, 3 μL of 10× Buffer II and 10 mM dNTPs, 6 μL of MgCl2 solution, 1.5 μL of 50 μM Random Hexamers, RNase Inhibitor and MuLV Reverse Transcriptase, 10 μL of RNA sample. cDNA products were stored at −20° C. For a 10 μL real-time quantitative PCR, the components were set up as: 0.2 μL of 10 μM forward and reverse primer 18s P. berghei, 5 μL of 2×SYBR Green PCR Master Mix, 1.6 μL of nuclease-free water, and 3 μL of cDNA sample. All test subjects were done in duplicates including positive and negative controls. When real-time PCR was finished, all data were baselined and normalized to the housekeeping gene before further analysis. The specific sequences of primers (The Core DNA Analysis Facility—JHU, Baltimore, Md.) were: 5′-[…]-3′ (SEQ ID NO: 1) and 5′-[…]-3′(SEQ ID NO: 2) for P. berghei ANKA 18s and 5′-[…]1TAGC-3′ (SEQ ID NO: 3) and 5′-[…]-3′ (SEQ ID NO: 4) for mouse HPRT.

Plasmodium = settings: reference molecules of the training set; read-out: liver stage inhibition; cited from earlier work
[3] = over 5,000 humans, single day dosing; cited from earlier work

Row | SMILES | parasite inhibition in vitro (in words) (P. berghei sporozoites [1]; Hepa1-6 cells) | inhibitory effect on parasite proliferation in mice (in words) (P. berghei sporozoites [2]; 50 mg/kg) | side effects in the mice (P. berghei sporozoites [2]; 50 mg/kg) | effect on parasite growth in mice (in words) (P. berghei sporozoites [2]; oral gavage) | also measured
1 | O=C(COC(=O)c1cccnc1SCC(=O)Nc1cc(S(=O)(=O)N2CCOCC2)ccc1Cl)Nc1cc(S(=O)(=O)N2CCOCC2)ccc1Cl [T0507-9950, [2-(2-chloro-5-morpholin-4-ylsulfonylanilino)-2-oxoethyl] 2-[2-(2-chloro-5-morpholin-4-ylsulfonylanilino)-2-oxoethyl]sulfanylpyridine-3-carboxylate] | measurable inhibitory effect | significant inhibitory effect | without causing any notable side effects |  | 
2 | COc1cc(NC(C)CCCN)c2ncccc2c1 (stereo not drawn) [primaquine] |  |  |  |  | inhibition of liver parasites in mice (P. berghei sporozoites [2]; primaquine 15 mg/kg, oral gavage): 83%
3 | O=C(/C=C/c1ccc(Cl)cc1Cl)Nc1cc(S(=O)(=O)N2CCCCC2)ccc1Cl [T0510-7064, (E)-N-(2-chloro-5-piperidin-1-ylsulfonylphenyl)-3-(2,4-dichlorophenyl)prop-2-enamide] | measurable inhibitory effect | significant inhibitory effect | without causing any notable side effects |  | reduction of parasite multiplication / growth in vitro (P. berghei sporozoites [1]; Hepa1-6 cells): 54%
4 | CCN(CC)S(=O)(=O)c1cccc(-c2nnc(SC(C)C(=O)Nc3ccc(C)c(S(=O)(=O)N(CC)CC)c3)n2Cc2ccccc2)c1 (stereo not drawn) [T5531873, 2-[[4-benzyl-5-[3-(diethylsulfamoyl)phenyl]-1,2,4-triazol-3-yl]sulfanyl]-N-[3-(diethylsulfamoyl)-4-methylphenyl]propanamide] | measurable inhibitory effect | significant inhibitory effect | without causing any notable side effects |  | reduction of parasite multiplication / growth in vitro (P. berghei sporozoites [1]; Hepa1-6 cells): over 95%; inhibition of liver stage malaria in vitro (P. berghei sporozoites [1]; FIG. 3, concentration not given): ~95%
5 | CC[C@H]1OC(=O)[C@H](C)[C@@H](O[C@H]2C[C@@](C)(OC)[C@@H](O)[C@H](C)O2)[C@H](C)[C@@H](O[C@@H]2O[C@H](C)C[C@H](N(C)C)[C@H]2O)[C@](C)(O)C[C@@H](C)C(=O)[C@H](C)[C@@H](O)[C@]1(C)O [erythromycin] | Neither quinoline, nor erythromycin, nor their combination showed any parasite inhibition; also recorded: inactive; also recorded: no activity |  |  | only marginal inhibitory effect; also recorded: no activity | 
6 | CC[C@@]1([C@@H]2O[C@@H]([C@H]3O[C@@](O)(CO)[C@H](C)C[C@@H]3C)C[C@@H]2C)CC[C@H]([C@]2(C)CC[C@]3(C[C@H](O)[C@@H](C)[C@@H]([C@@H](C)[C@@H](OC)[C@H](C)C(=O)O)O3)O2)O1 [monensin] |  |  |  |  | IC50 (Plasmodium): 1 pM
7 | CC[C@H]1OC(=O)[C@H](C)C(=O)[C@H](C)[C@@H](O[C@@H]2O[C@H](C)C[C@H](N(C)C)[C@H]2O)[C@@](C)(OC/C=C/c2cnc3ccccc3c2)C[C@@H](C)C(=O)[C@H](C)[C@H]2NC(=O)O[C@@]21C [Cethromycin, (1R,2R,4R,6S,7R,8R,10R,13R,14S)-7-[(2S,3R,4S,6R)-4-(dimethylamino)-3-hydroxy-6-methyloxan-2-yl]oxy-13-ethyl-2,4,6,8,10,14-hexamethyl-6-[(E)-3-quinolin-3-ylprop-2-enoxy]-12,15-dioxa-17-azabicyclo[12.3.0]heptadecane-3,9,11,16-tetrone] | measurable inhibitory effect; also recorded: active |  |  | active | inhibition of liver stage malaria in vitro (reduction of parasite growth) (P. berghei sporozoites [1]; 20 μM, Hepa1-6 cells): 54%; inhibition at 20 µM (P. berghei sporozoites [1]; Plasmodium berghei, Hepa1-6, 20 μM, Hepa1-6 cells, read-out: inhibition of liver stage malaria in vitro (reduction of parasite growth)): 52%; inhibition of liver parasites in mice (P. berghei sporozoites [2]; 12 mg/kg, oral gavage): about 16%; reduction of parasite load in mouse liver (P. berghei sporozoites [2]; 50 mg/kg, oral gavage, one dose, liver 40 hours post-infection): 60%; effect on parasite load in mice (in words) (P. berghei sporozoites [2]; cethromycin 12 mg/kg): only partially effective; safety in humans [3]: used safely
8 | c1ccc2ncccc2c1 [quinoline] | Neither quinoline, nor erythromycin, nor their combination showed any parasite inhibition; also recorded: inactive; also recorded: no activity |  |  | only marginal inhibitory effect; also recorded: no activity | effect on parasite growth in mice (in words) (P. berghei sporozoites [2]; oral gavage, listed as quinolone): only marginal effect
